Test results: patent US8951529B2, “Methods of using small compounds to enhance myeloid derived suppressor cell function for treating autoimmune diseases” (Icahn School of Medicine at Mount Sinai, priority 2009, dated 2015)

Experiments:
Gr-1+CD115+ MDSCs [1] = assay: Cytokine production by IFN-γ stimulated MDSCs (ELISA); assay type: cell-based, mouse; conditions: IFN-γ stimulation, 24 hours, FIG. 3A
Experimental: Sorted Gr-1+CD115+ MDSCs from tumor-bearing mice were stimulated with IFN-γ in the absence or presence of GA, SP600125, or both. Twenty-four hours after stimulation, culture supernatants were collected and the concentrations of IL-10, TGF-β, IL-6, and IL-23 were determined by ELISA (R&D Systems).
It was next determined whether GA, SP600125, or both exert an effect on cytokine production by MDSCs. Sorted Gr-1+CD115+ MDSCs from tumor-bearing mice were stimulated with IFN-γ in the absence or presence of GA, SP600125, or both. Twenty-four (24) hours after stimulation, culture supernatants were collected and the concentrations of IL-10, TGF-β, IL-6, and IL-23 were determined by ELISA (R&D Systems®). GA or SP600125 alone was capable of enhancing the secretion of IL-10 and TGF-β while decreasing IL-6 and IL-23 production by MDSCs in vitro (FIG. 3A).

Gr-1+CD115+ MDSCs [2] = assay: MDSC differentiation assay (flow cytometry); assay type: cell-based, mouse; conditions: 24 hours culture, FIG. 4A
Source text: Gr-1+CD115+ MDSCs were sorted by MACS and cultured in the absence or presence of GA, SP600125, or both. Twenty-four hours later, viable cells were harvested and stained with anti-CD86, anti-CD80, anti-CD11c, anti-I-A, anti-F4/80, or isotype-matched control followed by flow cytometric analysis to assess MDSC differentiation.
To test whether differentiation of MDSCs can be inhibited or retarded by the treatment of GA, SP600125, or both, Gr-1+CD115+ MDSCs were sorted by MACS and cultured in the absence or presence of GA, SP600125, or both. Twenty-four (24) hours later, viable cells were harvested and stained with anti-CD86, anti-CD80, anti-CD11c, anti-I-A, anti-F4/80, or isotype-matched control followed by flow cytometric analysis. […] Treatment with GA or SP600125 impaired the spontaneous differentiation of MDSCs, as evidenced by the lower expressions of CD11c, MHC class II, co-stimulatory molecules, and F4/80.

DSS-induced colitis = DSS-induced colitis in vivo model; set-up: species or system C57BL/6 mice
Source text: In certain aspects, the invention is related to the treatment of IBDs. Mouse models of IBD are well known in the art, and may be used to model human IBDs. For example, dextran sodium sulfate (DSS) may be administered to mice to induce IBD. In this model, mice are fed with water containing 3.5% DSS from day 0 to day 11. Following treatment, mice develop colitis. The severity of colitis is quantified (assigned a clinical score) by assessing stool consistency, bleeding, and weight loss, which ranges from 0 (healthy) to 4 (maximal severity). Histologically, DSS produces submucosal erosions, ulceration, inflammatory cell infiltration and crypt abscess as well as epithelioglandular hyperplasia. […] [Kawada et al., 2007, World J. Gastroenterol. 13: 5581-5593; Okayasu et al., 1990, Gastroenterology 98:694-702]
For adoptive transfer of MDSCs, 5×10^6 purified MDSCs suspended in PBS were administered by intravenous infusion at day 0 and day 7.
Mice were left untreated or treated with sorted MDSCs (5×10^6 cells/mouse) alone or in combination with GA and/or SP600125 (Sigma-Aldrich), on the day of disease induction. […] The severity of colitis was quantitated as a clinical score by assessing stool consistency, bleeding, and weight loss, which ranges from 0 (healthy) to 4 (maximal severity). The clinical score (weight loss, stool consistency, and bleeding) of treated mice was assessed in a double-blind fashion.
On day 11 post-IBD induction, colon tissues from treated mice were removed, fixed in 3% formaldehyde, sectioned, and stained with H&E staining to determine the pathology score of colitis. To reflect the general condition of the mice, a disease activity index (DAI) was determined by an investigator blinded to the protocol by scoring the extent of body weight loss, stool guaiac positivity or gross bleeding, and stool consistency according to the method described in Murthy et al. (1993) “Treatment of Dextran Sulfate Sodium-Induced Murine Colitis by Intracolonic Cyclosporin,” Digest. […] Stool consistency and the degree of blood in stool were evaluated on the day when animals were killed. […]

MDSCs = assay: Treg induction by MDSCs with or without LPS; assay type: cell-based, mouse; conditions: five days, FIG. 9A
Source text: Five days later, cells were harvested and stained with anti-CD4-FITC+anti-CD25-APC+anti-Foxp3-PE or isotype controls followed by flow cytometry.

multiple sclerosis = conditions: GA alone, Johnson et al. (1995); cited from earlier work
IBD = conditions: GA alone, clinical studies discontinued; cited from earlier work

Substance: L-glutamic acid polymer with L-alanine, L-lysine and L-tyrosine, acetate (salt) [GA]
- IL-6 production by MDSCs (Gr-1+CD115+ MDSCs [1]): decreasing
- IL-23 production by MDSCs (Gr-1+CD115+ MDSCs [1]): decreasing
- secretion of IL-10 by MDSCs (Gr-1+CD115+ MDSCs [1]): enhancing
- secretion of TGF-β by MDSCs (Gr-1+CD115+ MDSCs [1]): enhancing
- spontaneous differentiation of MDSCs (CD11c, MHC class II, co-stimulatory molecules, F4/80) (Gr-1+CD115+ MDSCs [2]): impaired
- decrease in colonic length (DSS-induced colitis; day 11, in comparison with naive healthy mice, FIG. 5C): 45%
- IBD clinical score (DSS-induced colitis; scale 0-4, 3.5% DSS day 0 to 11, GA s.c., SP600125 i.p. daily, MDSCs 5×10^6 i.v. days 0 and 7, FIG. 5A): did not significantly lower
- Treg cell induction by MDSCs without LPS (MDSCs; CD4+ HA TCR splenocytes): 11.1%
- Treg cell induction by MDSCs with LPS (MDSCs; LPS 100 ng/mL): 5.31%
- efficacy for treating multiple sclerosis (multiple sclerosis): only partially effective
- efficacy for treating IBD (IBD): failed to treat IBD
